How the values were obtained:
[1] = logP by reverse phase HPLC retention time against a calibration curve; conditions: chromatographic method, Zorbax Eclipse XDB C8, 30° C.
[2] = Maximum tolerated dose used in the mouse PK/PD study; type: in vivo; conditions: H460 tumor-bearing mice
[3] = H460 tumor-bearing nude mice, intravenous, dosed at MTD as free drug, 24 hour time point, FIG. 2
Experimental: Animals were inoculated with 5×10^5 H460 small cell lung cancer cells via subcutaneous injection to the flank. Tumors were allowed to reach an approximate volume of ˜500 mm^3. Animals were then randomized into treatment groups of 3 animals per time point and were dosed at the maximum tolerated dose (MTD). The 24 hour time point was used as a benchmark across compounds
Tumor platinum levels were determined by inductively coupled plasma mass spectrometry (ICP-MS). Tumors were excised from animals and dissolved in fuming nitric acid (60% w/w) by adding four parts nitric acid to 1 part tumor w/w and heating overnight at 60 degrees Centigrade. The resulting digest was diluted 1:10 in ICP-MS analysis buffer (1% nitric acid, 2% Triton® x-100), and directly introduced into the ICP-MS unit by peristaltic pump. The end dilution factor for the samples as introduced to the ICP-MS was 50×.

[4] = physchem

SMILES | Measured LogP [1] | Dose (mg/kg), dosed at the maximum tolerated dose (MTD) [2] [mg/kg] | platinum levels in the tumor [3] | chromatographic logP [4]
CCNC(=O)[O][Pt]([NH2])([NH2])([Cl])([Cl])[O]C(=O)NCC [Compound 5] | <1 | 30 | higher platinum levels | 
CCNC(=O)[O][Pt]([NH2])([NH2])([Cl])([Cl])[O]C(C)=O [Compound 1] |  |  |  | < 1

Reference: patent US10287308B2, “Compounds, compositions, and methods for the treatment of cancers” (priority 2013, dated 2019)
